Where only a bound is given, the exact number is not on record here.

One assay has as its target T1, MLLT1 YD (Homo sapiens, UniProt Q03111).
T1 construct: made in house; host or cells: E. coli Rosetta
T1 sequence (Q03111 1-138 limits assumed): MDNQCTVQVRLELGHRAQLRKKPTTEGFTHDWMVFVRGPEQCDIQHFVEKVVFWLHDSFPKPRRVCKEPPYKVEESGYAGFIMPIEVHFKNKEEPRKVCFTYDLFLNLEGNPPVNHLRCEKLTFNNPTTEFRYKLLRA
Briefly: AlphaScreen (AS) assay, MLLT1 YEATS domain. The class given is binding. The protocol: II.IV Protein Expression and Purification
Human bromodomains were cloned, expressed and purified as previously described. The cloning, expression and purification of human YEATS domains are described as follows; Sequences for the wild type YEATS domains of MLLT1, MLLT3, GAS41 and YEATS2 were cloned into expression vectors (Table S1). E. coli Rosetta cells were grown in TB medium at 37°C. Overexpression was induced after five hours by addition of IPTG to a final concentration of 0.4 mM and cells were incubated at 17°C overnight. Cells were harvested by centrifugation and the cell pellet was resuspended in cold binding buffer (50 mM Tris at pH 7.5, 500 mM NaCl, 20 mM imidazole, 2 mM DTT) on a magnetic stirring plate at 4°C. The suspension was lysed using an Avestin EmulsiFlex-C5 homogeniser (1 pass without pressure, four passes with pressure between 1000-1500 bar). The lysate was clarified via centrifugation at 16,000 rpm at 4°C for 1 hour (JLA-16 rotor in Beckmann Coulter Avanti J- […]
The supernatant was loaded onto a standard NiNTA column (HisTrap
FF, 5 ml, GE Healthcare Lifesciences) on an ÄKTAxpress system (GE). After washing with binding buffer, the target protein was eluted at 300 mM imidazole. The eluted peak fractions were pooled and concentrated to 5 ml (Amicon concentrators, 10 kDa molecular weight cut off (MWCO)) and then separated via size exclusion chromatography (buffered with 20 mM Tris at pH 7.5, 500 mM NaCl, 2 mM DTT) using a GE Superdex 75 column on an […]
(NanoDrop ND-1000 Spectrophotometer) and protein identity was verified via SDS-PAGE and LC/MS. Pooled fractions were then again concentrated to at least 2 mg/ml and stored at […]
(§1) (1 picture or pasted object on this page, not shown here)
On the technique in general: Bead proximity is the source of the signal in Alpha formats.

For another assay, the system named is MV4;11 AML cells. Description: qPCR gene expression in MV4;11 cells. The class given is cell-based, human. The settings on record: 1 μM, 72 h. As to the method: II.XII Analysis of gene expression by quantitative polymerase chain reaction (qPCR) […]
MV4;11 cells were cultured at 37 °C in a humidified 5% CO2 atmosphere in RPMI medium containing 10% FBS and 1% L-glutamine. Cells were seeded at a density of 2 x 10^6 cells/well in 6 well plates pre-coated in polyhema, to enable suspension culture. Cells were […]
and washing with PBS, RNA was extracted from cells using RNeasy Mini Kit (Qiagen), following the manufacturer’s protocol. Total RNA was quantified by Nanodrop and 500 ng of RNA was converted to cDNA using GoScript Reverse Transcription System (Promega). The final cDNA products were quantified by QPCR using FAM dye-labelled Taqman primers and probe sets (see table below). Data was analysed using the comparative cycle threshold (CT) method where CT values were normalised by subtracting that from an endogenous housekeeping gene (VIC dye-labelled ACTB). The gene expression levels from compound-treated cells are presented as relative to those of DMSO treated control cells. Statistical analyses were carried out using two-way ANOVA (GraphPad Prism 7).
ACTB (Beta Actin) Endogenous Control 4326315E
Supplementary Table 4. Taqman Gene Expression Assays (Life Technologies). Taqman MGB probes have 5’ FAM reporter dye (or VIC) and 3’ non-fluorescent quencher. […]
A general note: In qPCR the cycle at which signal appears reflects the starting amount.

Assay [1] deals with T2, endogenous MLLT1 in MV4;11 cells (Homo sapiens, UniProt Q03111).
T2 construct: with endogenous MLLT1 in MV4;11 cells; endogenous in cells; host or cells: MV4;11
T2 sequence (Q03111 whole entry): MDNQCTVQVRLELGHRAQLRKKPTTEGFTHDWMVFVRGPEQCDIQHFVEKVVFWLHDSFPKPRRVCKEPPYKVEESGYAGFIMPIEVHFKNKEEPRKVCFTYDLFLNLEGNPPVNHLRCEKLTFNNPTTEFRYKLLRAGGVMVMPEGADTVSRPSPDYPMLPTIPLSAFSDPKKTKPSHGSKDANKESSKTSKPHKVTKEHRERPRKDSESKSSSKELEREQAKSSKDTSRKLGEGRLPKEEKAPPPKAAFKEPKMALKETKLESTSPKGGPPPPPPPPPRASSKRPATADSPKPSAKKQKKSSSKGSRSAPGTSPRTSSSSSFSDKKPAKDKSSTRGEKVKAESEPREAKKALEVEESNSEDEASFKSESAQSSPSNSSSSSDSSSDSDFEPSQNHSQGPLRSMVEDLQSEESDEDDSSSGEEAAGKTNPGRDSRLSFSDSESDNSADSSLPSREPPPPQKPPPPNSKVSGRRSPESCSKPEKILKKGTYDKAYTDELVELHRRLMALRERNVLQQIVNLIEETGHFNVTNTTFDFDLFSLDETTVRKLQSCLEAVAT
Description: Cellular thermal shift assay (CETSA), MV4;11 cells. The class given is cell-based. The note with it: up to 10 μM. As to the method: Supplementary Table 2. Thermal stabilisation of compound 1, 92 and Bromosporine with recombinant human bromodomain proteins. *50 µM compound concentration. †10 µM compound […]
II.VIII Cellular Thermal Shift Assay[6]
HEK293 and MV4;11 cells were cultured at 37 °C in a humidified 5% CO2 atmosphere in DMEM Medium containing 10% FBS, respectively. Cells were grown until approximately […]
DMSO final concentrati on) for 30 minutes. Cells were then collected, washed with PBS, transferred in PCR tubes, and pelleted by centrifugation (300 g, 3 min, RT.) The PBS was removed, and the cell pellets heated at the indicated temperature for 3 minutes in a PCR machine (UNO96 , VMR) and then placed on ice. Lysis buffer (50 mM Tris pH 7.5, 0.8% v/v NP-40, 5% v/v glycerol, 1.5 mM MgCl2, 100 mM NaCl, 25 mM NaF, 1mM Na3VO4, 1mM PMSF, 1mM DTT, 10 μg/mL TLCK, 1 μg/mL Leupeptin, 1 μg/mL Aprotinin, 1 μg/mL soy bean trypsin, ≥250 units/ mL Benzonase) was added and the cells lysed by 3 freeze -thaw cycles in liquid nitrogen. Aggregated proteins were removed by centrifugation (17000 g, 20 min, 4 °C) and the protein concentration of the retained soluble fraction determined. 4× sample loading buffer (Bio-Rad) containing 20% v/v DTT was added and samples were heated for 6 min at 90 °C prior to separation by SDS -PAGE. […]

For the next assay, the target named is T3, MLLT3 YD (Homo sapiens, UniProt P42568).
T3 construct: made in house; host or cells: E. coli Rosetta
Description: Isothermal titration calorimetry (ITC), MLLT3 YD. It is filed as binding. The protocol: Supplementary Table 1. AlphaScreen selectivity screen of compound 92 over other acyllysine […]
II.III Isothermal Titration Calorimetry (ITC)
Experiments were carried out on a Nano -ITC Standard Volume Instrument (TA Instruments).
All experiments were carried out at 25 °C in 20 mM HEPES pH 7.5, 150 mM NaCl, 0.5 mM TCEP and 5% glycerol. Protein soluti ons were buffer exchanged by gel filtration. The titrations were conducted using an initial injection of 2 μL followed by 32 injections of 8 μL.
Background dilution heat was subtracted from each experiment. Thermodynamic parameters […]
changes in free energy, enthalpy and entropy respectively. Independent single site binding models were employed in data analysis.
(also on this page, place not known: ac yllysine Nano-ITC -T 1/ KB. ΔH Molar&ratio&[injectant/cell] Time&[s] Corrected&Heat&Rate&[ucal/s] Experiment&1 K Experiment&2 K K)
as §1
(In ITC the heat of successive injections is recorded.)

A further assay concerns the target T4, MLLT3 (Homo sapiens, UniProt P42568).
T4 construct: in full length MLLT3 N-terminal NanoLuc, Histone; host or cells: HEK293
T4 sequence (P42568 1-568): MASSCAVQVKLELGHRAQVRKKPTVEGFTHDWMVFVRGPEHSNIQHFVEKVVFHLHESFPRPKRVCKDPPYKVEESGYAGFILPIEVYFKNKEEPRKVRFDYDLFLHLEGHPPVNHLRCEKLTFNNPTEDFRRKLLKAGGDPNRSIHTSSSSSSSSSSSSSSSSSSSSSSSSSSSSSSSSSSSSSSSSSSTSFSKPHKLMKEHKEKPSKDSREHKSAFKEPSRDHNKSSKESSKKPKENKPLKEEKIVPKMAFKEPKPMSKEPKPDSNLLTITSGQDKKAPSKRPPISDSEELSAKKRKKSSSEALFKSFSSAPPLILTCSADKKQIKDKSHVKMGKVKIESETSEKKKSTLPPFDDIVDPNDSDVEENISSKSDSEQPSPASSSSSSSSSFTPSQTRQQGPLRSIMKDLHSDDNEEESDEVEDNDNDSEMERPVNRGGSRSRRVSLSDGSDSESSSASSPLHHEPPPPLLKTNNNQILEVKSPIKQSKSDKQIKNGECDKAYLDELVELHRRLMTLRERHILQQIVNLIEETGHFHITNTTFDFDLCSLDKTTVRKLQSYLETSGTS
Description: NanoBRET assay, full-length MLLT3-NanoLuc / histone H3.3-HaloTag in HEK293 cells. It is filed as cell-based. The note with it: 24 h, in the presence of 2.5 μM SAHA. The protocol: II.V NanoLuciferase Bioluminescent Resonance Energy Transfer (NanoBRET) Assay[2]
HEK293 cells ([…]) were plated in each well of a 6-well plate after 6 h cells were co-transfected with Histone H3.3-HaloTag (NM_002107) and a NanoLuciferase fusion of MLLT1 or MLLT3 (WT sequences from Promega HaloTag® human ORF in pFN21A) at a 1:500 and 1:10 (NanoLuc® to HaloTag®) ratio respectively with FuGENE HD transfection regent. Sixteen hours post-transfection, cells were collected and exchanged into media containing phenol red-free DMEM and 4% FBS in the absence (control sample) or the presence (experimental sample) of 100 nM NanoBRET 618 fluorescent ligand (Promega).
Cell density was adjusted to 2 x 10^5 cells/mL and then seeded 100 µL/well in a white 96-well plate (Corning Costar #3917). Compounds were then added directly to media (in the presence of SAHA 2.5 µM) at final concentrations 0.01-30 μM or an equivalent amount of DMSO as a vehicle control, and the plates were incubated for 24 h at 37 °C in the presence […]
NanoBRET Nano-Glo substrate (Promega) was added to both control and experimental samples at a final concentration of 10 µM. Readings were performed within 5 minutes using a ClarioSTAR (BMG labtech) equipped with LP 480 and 610 nm filters. A corrected BRET ratio was calculated and is defined as the ratio of the emission at 610 nm/[…] for experimental samples minus the emission at 6 10 nm/640 nm for control samples (not incubated with NanoBRET fluorescent ligand). BRET ratios are expressed as milliBRET units (mBU), where 1 mBU corresponds to the corrected BRET ratio multiplied by 1000.
3.3 C-terminal HaloTag in HEK293 cells. Treatment with SAHA (2.5 µM) alone increases MLLT3- […]
dependent manner. Mean±SD of BRET ratio (mBU), n=4 technical replicates.
(also on this page, place not known: 5) -well H3.3 -HaloTag pFN21A ) ( NanoLuc® H aloTag®) post -transfection, red -free Nano -Glo 10 5 6 10 6 10 l igand). cells . […]

For orientation: IC50 means the point on the concentration scale where inhibition reaches its midpoint. `O=C(Nc1ccc2[nH]c(CN3CCCCC3)nc2c1)c1ccc(-n2ccnc2)cc1` [Compound 77] came in with an IC50 against MLLT1 YD of 1000 ± 590 nM. Turning to `Cn1ncc2cc(C(=O)Nc3ccc4[nH]c(CN5CCCCC5)nc4c3)ccc21` [Compound 79], half-maximal inhibition at MLLT1 YD (IC50) was put at 1600 ± 540 nM. Compound `COc1ccccc1C(=O)Nc1ccc2[nH]c(CN3CCCCC3)nc2c1` [Compound 69] had an IC50 on MLLT1 YD greater than 20000 nM. Still for that read-out and setting: then `COCC1CCCN1Cc1nc2cc(NC(=O)c3ccc4c(cnn4C)c3)ccc2[nH]1` (stereo not shown) [Compound 88], with 970 ± 470 nM; and `CC1CCN(Cc2nc3cc(NC(=O)c4ccccc4)ccc3[nH]2)CC1` [Compound 83], with greater than 20000 nM. Compound `O=C(Nc1ccc2[nH]c(CN3CCCCC3)nc2c1)c1ccccc1Cl` [Compound 68] came in with an IC50 on MLLT1 YD greater than 20000 nM. Same read-out and setting: then `C[C@@H]1C[C@H](C)CN(Cc2nc3cc(NC(=O)c4ccc5c(cnn5C)c4)ccc3[nH]2)C1` [Compound 82], with 5700 ± 2400 nM; and `CC1CCN(Cc2nc3cc(NC(=O)c4ccc5c(cnn5C)c4)ccc3[nH]2)C1` (stereo not shown) [Compound 89], with 600 ± 460 nM; and `O=C(Nc1ccc2[nH]c(CCN3CCCCC3)nc2c1)c1ccc(Cl)cc1` [Compound 84], with greater than 20000 nM. By Kd is commonly meant the equilibrium constant for the complex coming apart. Take `C[C@@H]1CCCN1Cc1nc2cc(NC(=O)c3ccc4c(cnn4C)c3)ccc2[nH]1` [Compound 91]: the “gene expression of MYC, MPO, DDN, CTSG, CD86 (qPCR)” value in the assay with MV4;11 AML cells is recorded as “diminished cell activity”. Further, in assay [1], the “thermal stabilisation of MLLT1 (CETSA)” value is given as “no thermal stabilisation”. This compound gave an equilibrium dissociation constant (Kd) on MLLT3 YD of 540 nM. In addition, the IC50 at MLLT3 is 5.8 ± 0.07 µM.

`Cn1ncc2cc(C(=O)Nc3ccc4[nH]c(CN5C[C@H]6C[C@H]6C5)nc4c3)ccc21` [Compound 86] had an IC50 against MLLT1 YD of 1400 ± 860 nM. `CC(c1nc2cc(NC(=O)c3ccc(Cl)cc3)ccc2[nH]1)N1CCCCC1` (stereo not shown) [Compound 81]: the IC50 at MLLT1 YD is greater than 20000 nM.

At MLLT1 YD, `O=C(Nc1ccc2[nH]c(CN3CCCCC3)nc2c1)c1cccc(OC(F)(F)F)c1` [Compound 70] registered an IC50 greater than 20000 nM.

At MLLT1 YD, `CCC1CCCN1Cc1nc2cc(NC(=O)c3ccc4c(cnn4C)c3)ccc2[nH]1` (stereo not shown) [Compound 87] yielded an IC50 of 300 ± 60 nM. In turn, `COc1ccc(C(=O)Nc2ccc3[nH]c(CN4CCCCC4)nc3c2)cc1` [Compound 74] had an IC50 at MLLT1 YD of 6400 ± 650 nM. In the case of `CC1CCN(Cc2nc3cc(NC(=O)c4ccc5c(cnn5C)c4)ccc3[nH]2)C1` (stereo not shown) [Compound 90], half-maximal inhibition on MLLT1 YD (IC50) was put at 730 ± 590 nM.

The compound `C[C@@H]1CCC[C@H](C)N1Cc1nc2cc(NC(=O)c3ccc(Cl)cc3)ccc2[nH]1` [Compound 80] had an IC50 on MLLT1 YD greater than 20000 nM. In the case of `CC1CCCN1Cc1nc2cc(NC(=O)c3ccc(Cl)cc3)ccc2[nH]1` (stereo not shown) [Compound 85], inhibition on MLLT1 YD was half-maximal at 330 ± 110 nM (IC50). For the compound `Cc1ccc(C(=O)Nc2ccc3[nH]c(CN4CCCCC4)nc3c2)cc1C` [Compound 72], the IC50 against MLLT1 YD was 5500 ± 60 nM.

Values taken from PMC6348381, “Discovery of an MLLT1/3 YEATS Domain Chemical Probe” (Angewandte Chemie (International Ed. in English), 2018).
